Data set [1] is described as follows: Plasma levels following oral administration to rats. It is filed as in vivo. The conditions noted are these: rat, normalised dose of 1 mg of compound per kilogram of rat body weight. The procedure: Planetary Milled compounds [15 mins, 500 rpm, 5 Zirconium Balls, in a Puluerisette 7 Mill (Glen Creston Ltd, Stanmore, Middlesex, UK)] were suspended in 0.5% HPMC Tween and dosed to High Fat Fed (Research Diets, D12451, ad lib feeding 14 days) Female Alderley Park Zucker or Alderley Park Wistar rats at rate of 5 mls/kg, at doses between 0.3 and 10 mg/kg by oral gavage.
Samples of plasma were obtained either by conscious blood sampling or terminal blood sampling as follows:
Conscious blood sampling (for compound level or blood chemistry)—Intravenous blood samples were taken from tail vein using 600 μl Starstedt Multivette (EDTA) and 22 G needle at the required time point. […]
The reconstituted samples were then analysed using high performance liquid chromatography with tandem mass spectrometry detection (HPLC-MS-MS)”. […]
The concentration of test samples was determined from the ratio of the peak height of the test sample to the peak height of the internal standard. The concentration of the test sample was calculated with reference to a standard curve relating the ratio to the concentration prepared by using known concentrations of test sample added to samples of rat plasma using (3-isopropoxy-5-benzyoxy-benzoyl)amino pyridine 3-carboxylic acid as an internal standard, treated as described above.

For a further data set, the target named is T1, glucokinase (GLK) (Homo sapiens, UniProt P35557).
T1 sequence (P35557 1-466 isoform P35557-2): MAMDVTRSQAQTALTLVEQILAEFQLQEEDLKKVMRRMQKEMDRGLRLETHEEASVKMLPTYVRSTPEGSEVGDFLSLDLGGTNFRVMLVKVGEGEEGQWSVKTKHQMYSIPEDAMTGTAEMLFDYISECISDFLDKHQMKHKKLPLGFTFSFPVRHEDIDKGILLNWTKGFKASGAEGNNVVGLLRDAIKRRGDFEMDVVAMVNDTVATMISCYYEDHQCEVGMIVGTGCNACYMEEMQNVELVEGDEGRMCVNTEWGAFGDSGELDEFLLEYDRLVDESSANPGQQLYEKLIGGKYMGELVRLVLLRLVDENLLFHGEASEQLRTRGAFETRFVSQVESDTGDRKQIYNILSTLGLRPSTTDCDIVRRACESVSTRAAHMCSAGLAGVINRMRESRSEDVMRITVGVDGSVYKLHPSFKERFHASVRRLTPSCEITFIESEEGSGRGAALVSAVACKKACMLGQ
In words: biochemical.

The nature of data set [2]: Estimation of plasma half-life. The settings on record: rat, typically determined following intravenous administration, read-out: t½ (half life in plasma) (converted). The format is in vivo. From the text: The plasma half-life is the time taken for the concentration of compound in the plasma to decline to half of its original value. This is typically determined following intravenous administration of the test compound, followed by measurement of the compound concentrations in plasma samples as described above. The plasma half-life is estimated from a semilogarithmic plot, plotting the log of the plasma concentration (lnCp) against sample time (t, linear). The apparent first-order elimination rate constant, k, is equal to the slope of the line, and the elimination half-life (t½) is […] (Gibaldi, M and Perrier, D, 1975 Pharmacokinetics, Marcel Dekker, New York): […]

The nature of data set [3]: Plasma protein binding by equilibrium dialysis. The conditions noted are these: rat, 18 hours at 37° C., plasma vs isotonic phosphate buffer pH 7.4, read-out: % free in plasma. It is filed as in vitro ADME. As to the method: The plasma protein binding of compounds was measured using the equilibrium dialysis technique (W. Lindner et al, J. Chromatography, 1996, 677, 1-28). Compound was dialysed at a concentration of 20 μM for 18 hours at 37° C. with plasma and isotonic phosphate buffer pH 7.4 (1 ml of each in the dialysis cell). A Spectrum® 20-cell equilibrium dialyser was used together with Teflon, semi-micro dialysis cells and Spectra/Por®2 membrane discs with a molecular weight cut off 12-14000 Dalton, 47 mm (supplied by PerBio Science UK Ltd, Tattenhall, Cheshire). Plasma and buffer samples are removed following dialysis and analysed using HPLCUV/MS (high performance liquid chromatography with UV and mass spec detection) to give the % free level in plasma.

SMILES strings stand for the structures.

For `COC[C@H](C)Oc1cc(Oc2ccc3c(c2)OCO3)cc(C(=O)Nc2ccc(C(=O)O)cn2)c1` [Example 2, 6-{[(3-(1,3-benzodioxol-5-yloxy)-5-{[(1S)-1-methyl-2-(methyloxy)ethyl]oxy}phenyl)carbonyl]amino}pyridine-3-carboxylic acid], the “Peak Blood levels (including both bound and free)” value in data set [1] was determined as 2.7 µM. The EC50 at glucokinase (GLK) worked out at 60 nM. The half-life in data set [2] is 6.4 h. Further, the fraction unbound at 18 hours, 20 μM in data set [3] came out at 0.0026.

The values are drawn from patent US20090018157A1, “Chemical compounds” (priority 2003, published 2009).
